Molecules are shown by their SMILES. pIC50: −log10 of the molar value. A value given as a limit tells only on which side of the number the result lay.

The record followed here is patent US20220257774A1, “AROMATIC AMINE AR AHD BET TARGETING PROTEIN DEGRADATION CHIMERA COMPOUND AND USE” (HINOVA PHARMACEUTICALS INC., priority 2019, published 2022).

The first assay has as its system LNCaP/AR cells. As to the kind of experiment: Inhibition of the proliferation of LNCap/AR cells (CCK-8). The settings on record: 144 h; LNCaP/AR cells, 6 days culture, CCK-8; read-out: LNCap/AR IC50. Type of assay: cell-based. An excerpt: 1. Biological Assay of the Inhibition on the Proliferation of LNCap/AR Cells
(1) Experimental materials and instruments: LNCaP/AR cell line and 22RV1 cell line (provided by Sichuan Kangcheng Biotechnology Co., Ltd.) Fetal bovine serum FBS (Gibco, Cat. No. 10099-141) 0.01M PBS (Biosharp, Cat. No. 162262) RIPM1640 medium (Hyclone, Cat. No. 308090.01) Penicillin-Streptomycin (Hyclone, Cat. No. SV30010) Cell counting kit-8 (Signalway Antibody, Cat. No. CP002) DMSO (Sigma, Cat. No. D5879) Centrifuge Tube, 15 ml (Excell Bio, Cat. No. CS015-0001) Cell Culture Dish, (Excell Bio, Cat. No. CS016-0128) 96-well cell culture plate (Corning, Cat. No. 3599) Microplate reader (Thermo Multiskan MK3 type)
(2) Experimental Methods:
a. Preparation of Buffer Cell culture medium: RIPM1640 medium, 10% FBS, 1% Pen Strep: PBS buffer: PBS powder was dissolved in 2 L of ultrapure water and sterilized. b. Experimental Procedures 1) LNCaP/AR cells were subcultured in cell culture media, and then the cells in good growth condition were seeded in a 96-well plate at 80 μL/well (1000 cells/well), and cultured overnight in a 37° C., 5% CO2 cell incubator. 2) The drug was prepared into a 10 mM stock solution with dimethyl sulfoxide (DMSO). Prior to use, the stock solution was diluted in a ratio of […] with DMSO, and then diluted at a 3-fold gradient to obtain 9 serial concentrations. Then, each concentration of compound was further diluted in a ratio of 1:200 with the culture medium (to ensure that the DMSO concentration in the culture system was 0.1%), and two wells were set for each concentration. 20 μL of the diluted compound solution was added to the well of the cell culture (with a final concentration of 10 μM, 3.3 μM, 1.1 μM . . . ), and then the plate was gently tapped to thoroughly mix. In addition, the experiment included 3 negative control wells only containing cells and 3 blank control wells only containing culture medium (6 wells were each added with DMSO diluted in a ratio of 1:200 with 20 μL of culture medium). c. Result Detection: 1) After culturing for 6 days, 10 μL of CCK-8 was added to each well, and the plate was further incubated for 1 h in a 37° C., 5% CO2 cell incubator. 2) The absorbance (OD value) was measured at 450 nm with a multifunctional microplate reader. 3) The data was analyzed by the Dose-response-inhibition equation in the software GraphPad Prism5, and the IC50 value was obtained. 2. Biological assay of the inhibition on the proliferation of other drug-resistant prostate cancer cells
Regarding `Cc1ccc(-c2c(C)noc2C)cc1N(CCCCCOCC(=O)N[C@H](C(=O)N1C[C@H](O)C[C@H]1C(=O)N[C@@H](C)c1ccc(-c2scnc2C)cc1)C(C)(C)C)c1ccc(Br)cc1` [Compound 26, (2S,4R)-1-((S)-2-(2-((5-((4-Bromophenyl)(5-(3,5-Dimethylisoxazol-4-yl)-2-methylphenyl)amino)pentyl)oxy)acetamido)-3,3-dimethylbutyryl)-4-hydroxy-N—((S)-1-(4-(4-methylthiazol-5-yl)phenyl)ethyl)pyrrolidine-2-formamide], the pIC50 was 6.30 to 7.00. Turning to `Cc1ccc(-c2c(C)noc2C)cc1N(CCCCCOCC(=O)Nc1cccc2c1CN(C1CCC(=O)NC1=O)C2=O)c1ccc(Br)cc1` (stereo not shown) [Compound 27, 2-((5-((4-Bromophenyl)(5-(3,5-Dimethylisoxazol-4-yl)-2-methylphenyl)amino)pentyl)oxy)-N-(2-(2,6-dioxopiperidin-3-yl)-1-oxoisoindolin-4-yl)acetamide], the pIC50 is 5.70 to 6.30. On the same count and under the same terms, the same measure for `Cc1ccc(-c2c(C)noc2C)cc1N(CCC1CCN(c2ccc3c(c2)C(=O)N(C2CCC(=O)NC2=O)C3=O)CC1)c1ccc(C2(C#N)CC2)cc1` (stereo not shown) [Compound 28, 1-(4-((5-(3,5-Dimethylisoxazol-4-yl)-2-methylphenyl)(2-(1-(2-(2,6-dioxopiperidin-3-yl)-1,3-dioxoisoindolin-5-yl)piperidin-4-yl)ethyl)amino)phenyl)cyclopropane-1-carbonitrile]: 6.30 to 7.00; for `Cc1ccc(-c2c(C)noc2C)cc1N(CCC1CCN(c2cc3c(cc2F)C(=O)N(C2CCC(=O)NC2=O)C3=O)CC1)c1ccc(C2(C#N)CC2)cc1` (stereo not shown) [Compound 29, 1-(4-((5-(3,5-Dimethylisoxazol-4-yl)-2-methylphenyl)(2-(1-(2-(2,6-dioxopiperidin-3-yl)-6-fluoro-1,3-dioxoisoindolin-5-yl)piperidin-4-yl)ethyl)amino)phenyl)cyclopropane-1-carbonitrile]: less than 5.70; for `Cc1ccc(-c2c(C)noc2C)cc1N(CCCC1CCN(c2ccc3c(c2)C(=O)N(C2CCC(=O)NC2=O)C3=O)CC1)c1ccc(C2(C#N)CC2)cc1` (stereo not shown) [Compound 30, 1-(4-((5-(3,5-Dimethylisoxazol-4-yl)-2-methylphenyl)(3-(1-(2-(2,6-dioxopiperidin-3-yl)-1,3-dioxoisoindolin-5-yl)piperidin-4-yl)propyl)amino)phenyl)cyclopropane-1-nitrile]: 6.30 to 7.00. As for `Cc1ccc(-c2c(C)noc2C)cc1N(CCCCCNc1ccc2c(c1)CN(C1CCC(=O)NC1=O)C2=O)c1ccc(-c2c(C)noc2C)cc1` (stereo not shown) [Compound 33, 3-(5-((5-((5-(3,5-Dimethylisoxazol-4-yl)-2-methylphenyl) (4-(3,5-dimethylisoxazol-4-yl)phenyl)amino)pentyl)amino)-1-oxoisoindolin-2-yl)piperidine-2,6-dione], the pIC50 is 6.30 to 7.00.

For `CC(=O)O[C@@H]1C[C@@H](C(=O)N[C@@H](C)c2ccc(-c3scnc3C)cc2)N(C(=O)[C@@H](NC(=O)CN2CCN(CCN(c3ccc(-n4ccnc4)c(Br)c3)c3cc(-c4c(C)noc4C)ccc3C)CC2)C(C)(C)C)C1` [Compound 47, (3R,5S)-1-((S)-2-(2-(4-(2-((3-bromo-4-(1H-imidazol-1-yl)phenyl)(5-(3,5-dimethylisoxazol-4-yl)-2-methylphenyl)amino)ethyl)piperazin-1-yl)acetamido)-3,3-dimethylbutanol)-5-((S)-1-(4-methylthiazol-5-yl)phenyl)ethyl)carbamoyl)pyrrolidine-3-yl acetate], the pIC50 is 5.70 to 6.30. Still for that read-out and setting: the result for `CC(=O)O[C@@H]1C[C@@H](C(=O)N[C@@H](C)c2ccc(-c3scnc3C)cc2)N(C(=O)[C@@H](NC(=O)COCCCCCN(c2ccc(-n3ccnc3)c(Br)c2)c2cc(-c3c(C)noc3C)cnc2C)C(C)(C)C)C1` [Compound 48, (3R,5S)-1-((S)-2-(2-((5-((3-bromo-4-(1H-imidazol-1-yl)phenyl)(5-(3,5-dimethylisoxazol-4-yl)-2-methylpyridin-3-yl)amino)pentyl)oxy)acetamido)-3,3-dimethylbutanol)-5-((S)-1-(4-methylthiazol-5-yl)phenyl)ethyl)carbamoyl)pyrrolidine-3-yl acetate] reads 5.70 to 6.30. On the same count and under the same terms, the same measure for `Cc1ncc(-c2c(C)noc2C)cc1N(CCCCCOCC(=O)N[C@H](C(=O)N1C[C@H](O)C[C@H]1C(=O)N[C@@H](C)c1ccc(-c2scnc2C)cc1)C(C)(C)C)c1ccc(-n2ccnc2)c(Br)c1` [Compound 49, (2S,4R)-1-((S)-2-(2-((5-((3-bromo-4-(1H-imidazol-1-yl)phenyl)(5-(3,5-dimethylisoxazol-4-yl)-2-methylpyridin-3-yl)amino)pentyl)oxy)acetamido)-3,3-dimethylbutyryl)-4-hydroxy-N—((S)-1-(4-(4-methylthiazol-5-yl)phenyl)ethyl)pyrrolidine-2-formamide]: 5.70 to 6.30. Take `CC(=O)O[C@@H]1C[C@@H](C(=O)N[C@@H](C)c2ccc(-c3scnc3C)cc2)N(C(=O)[C@@H](NC(=O)COCCN2CCC(CN(c3ccc(-n4ccnc4)c(Br)c3)c3cc(-c4c(C)noc4C)ccc3C)CC2)C(C)(C)C)C1` [Compound 50, (3R,5S)-1-((S)-2-(2-(4-((3-bromo-4-(1H-imidazol-1-yl)phenyl) (5-(3,5-dimethylisoxazol-4-yl)-2-methylphenyl)amino)methyl)piperidin-1-yl)ethoxy)acetamido)-3,3-dimethylbutyryl)-5-((S)-1-(4-methylthiazol-5-yl)phenyl)ethyl)carbamoyl)pyrrolidine-3-yl acetate]: the pIC50 is 5.70 to 6.30.

As to `CC(=O)O[C@@H]1C[C@@H](C(=O)N[C@@H](C)c2ccc(-c3scnc3C)cc2)N(C(=O)[C@@H](NC(=O)COCCN2CC(CN(c3ccc(-n4ccnc4)c(Br)c3)c3cc(-c4c(C)noc4C)ccc3C)C2)C(C)(C)C)C1` [Compound 51, (3R,5S)-1-((S)-2-(2-(3-((3-bromo-4-(1H-imidazol-1-yl)phenyl) (5-(3,5-dimethylisoxazol-4-yl)-2-methylphenyl)amino)methyl)azetidine-1-yl)ethoxy)acetamido)-3,3-dimethylbutanol)-5-((S)-(4-methylthiazol-5-yl)phenyl)ethyl)carbamoyl)pyrrolidine-3-yl acetate], the pIC50 is less than 5.70. Consider `Cc1cn(-c2ccc(N(CCCCCOCC(=O)N[C@H](C(=O)N3C[C@H](O)C[C@H]3C(=O)N[C@@H](C)c3ccc(-c4scnc4C)cc3)C(C)(C)C)c3cc(-c4c(C)noc4C)ccc3C)cc2Br)cn1` [Compound 53], for which the pIC50 is more than 7.00.

On to `CC(=O)O[C@@H]1C[C@@H](C(=O)N[C@@H](C)c2ccc(-c3scnc3C)cc2)N(C(=O)[C@@H](NC(=O)COCCOCCN(c2ccc(-n3ccnc3)c(Br)c2)c2cc(-c3c(C)noc3C)ccc2C)C(C)(C)C)C1` [Compound 54], for which the pIC50 was less than 5.70. On the same count and under the same terms, the same measure for `Cc1ccc(-c2c(C)noc2C)cc1N(CCOCCOCC(=O)N[C@H](C(=O)N1C[C@H](O)C[C@H]1C(=O)N[C@@H](C)c1ccc(-c2scnc2C)cc1)C(C)(C)C)c1ccc(-n2ccnc2)c(Br)c1` [Compound 55]: less than 5.70.

Staying with this assay, now noted: LNCaP/AR cells, 6 days culture, CCK-8; read-out: LNCap/AR IC50.
As for `CC(=O)O[C@@H]1C[C@@H](C(=O)N[C@@H](C)c2ccc(-c3scnc3C)cc2)N(C(=O)[C@@H](NC(=O)COCCCCCN(c2ccc(-n3cnc(C)c3)c(Br)c2)c2cc(-c3c(C)noc3C)ccc2C)C(C)(C)C)C1` [Compound 52, (3R,5S)-1-((S)-2-(2-((5-((3-bromo-4-(4-methy-1H-imidazol-1-yl)phenyl)(5-(3,5-dimethylisoxazol-4-yl)-2-methylphenyl)amino)pentyl)oxy)acetamido)-3,3-dimethylbutyryl)-5-((S)-1-(4-methylthiazol-5-yl)phenyl)ethyl)carbamoyl)pyrrolidine-3-yl acetate], the pIC50 is 6.30 to 7.00.

Still in this assay, the particulars now being: LNCaP/AR, 144 h, read-out: LNCap/AR IC50.
Turning to `CC(=O)O[C@@H]1C[C@@H](C(=O)N[C@@H](C)c2ccc(-c3scnc3C)cc2)N(C(=O)[C@@H](NC(=O)COCC#CCN(c2ccc(-n3ccnc3)cc2)c2cc(-c3c(C)noc3C)ccc2C)C(C)(C)C)C1` [Compound 46, (3R,5S)-1-((S)-2-(2-((4-((4-(1H-imidazol-1-yl)phenyl)(5-(3,5-dimethylisoxazol-4-yl)-2-methylphenyl)amino)but-2-yn-1-yl)oxy)acetamido)-3,3-dimethylbutanol)-5-((S)-1-(4-methylthiazol-5-yl)phenyl)ethyl)carbamoyl)pyrrolidine-3-yl acetate], the pIC50 was less than 5.70.
